We go through 4 substances from patent US20100316574A1, “Oncofetal Antigen/Immature Laminin Receptor Peptides for the Sensitization of Dendritic Cells for Cancer Therapy” (Quantum Immunologics, Inc., priority 2009, published 2010).

One test deals with DU145 cells. Nature of the test: CellTiter-Blue cell viability assay. Format: cell-based. The conditions noted are these: for cell viability versus controls: overnight; for effect on cell viability: compared to peptide diluent control. As to the method:
All cells were grown in RPMI 1640 with L-glutamine; 100 I.U. Penicillin, 100 μg/ml Streptomycin, and 10% fetal calf serum at 37° C. in a humid chamber (Mediatech, Inc. Manassas, Va.). DU 145 cells were obtained from American Type Culture Collection (ATCC, Manassas, Va.) and grown in media following standard protocols. DU145 cells were grown to between 75 and 85% density and collected following standard protocols and counted using a modified Neubauer brightline hemacytometer and suspended at 400,000 cell/ml.
(§1) Peptides were dissolved in either phosphate buffered saline (PBS) or DMSO and then PBS to a maximum of 20% DMSO and a 2× solution was made and placed into complete medium. After being diluted to appropriate concentration, 50 μl was dispensed into a 96-well assay plate, either coated with laminin/entactin complex (50 μg/ml) or untreated (Black with clear bottom) (Corning Life Sciences, Corning, N.Y.), 50 μl of cells (20,000 cells/well), and were grown overnight. Cells then had 20 μl of CellTiter-Blue added ((Promega, Madison, Wis.)) and incubated for an additional 2 hours at 37° C. Cells were then read on a DTX-880 (Beckman Inc.) following standard fluorescent protocols with an integration time of 0.001 sec. To determine if caspase activity was induced, Caspase 3/7 activity was determined using ApoOne assay (Promega, Madison, Wis.). The data was exported to Excel and then to Prism 5.0 (GraphPad Software, Inc) where it was plotted, and analyzed for statistical differences between the background control (diluents used for the peptide) using a one-way ANOVA.
(Alamar Blue is a resazurin reagent that responds to reducing activity.)

The subject of test [1] is dendritic cells pulsed with recombinant human OFA/iLRP. Nature of the test: FACS binding of fluorescein-labeled 129 and 129-a peptides to dendritic cells pulsed with rHu OFA. The format is cell-based. Particulars: FITC-labeled peptide on dendritic cells pulsed with rHu OFA 100 ng/ml.
Procedure: CD 14+ monocytes were grown in serum-free dendritic cell medium containing: 1000 IU/ml GM-CSF and 1000 IU/ml of IL-4 (Cell Genix Antioch, IL) at 1×10^6 cells per ml. The cells were pulsed with rHu OFA at 100 ng/ml for 36 hours. The pulsed dendritic cells were matured using serum-free dendritic cell medium containing: 10 ng/ml IL-1beta, 1000 IU/ml IL-6, and 5 ng/ml TNF-alpha with 1 μm prostaglandin E2 and matured for 2 days. At the end of two days, the cells were scraped from the plate and analyzed using flow cytometry analysis.
Briefly, the peptide that was labeled on a cysteine included allowing for conjugation using Fluorsceine-5-maledimide (Pierce/Thermo, Rockford, Ill.) following standard protocols. The unbound fluorsceine was removed using a standard dye-removal column (Pierce/Thermo, Rockford, Ill.). This cysteine can also be used to conjugate the peptides to a range of different products.
To determine if the maturation was successful, the cells were analyzed with CD14, CD83, CD80/86, and Class II MHC (HLA-DR) following standard protocols (R&D systems; Minneapolis, Minn.). Briefly, 0.5×10^5 cells per tube were suspended in 25 μl or phosphate buffered saline with 2% fetal calf serum. […] The cells were resuspended in 400 μl of PBS with 2% FCS and analyzed. If the cells could not be analyzed immediately, then they were fixed in 0.5% formaldehyde/PBS at 4° C. in the dark. […]
For a further test, the system named is Caspase 3/7. As to the kind of experiment: ApoOne Caspase 3/7 assay. The format is cell-based. Particulars: DU145; data not shown. As to the method: as §1
The subject of a further test is T-cells. The conditions noted are these: previously described epitope; cited from earlier work.

“Also recorded” adds a separate entry of the source.

Take TWEKLLLAARAIVAIENPAD [peptide 1]: the “cell viability versus controls” value with DU145 cells (laminin/entactin coated plate (laminin)) and in the test on DU145 cells (uncoated plate (w/o laminin)) was “no statistical difference” each time.

Turning to “Ac-CADHQPLTEASYVNLPT-amide (Ac-CADHQPLTEASYVNLPT-NH2) [129 peptide, start site 129]”, in test [1], the “mean fluoresence intesity (MFI)” value is reported as 11,390+/−500.6.

In the case of “GRFTPGTFTNQIQAAFREP [peptide 2, start site 101]”, the results for the “effect on cell viability” value in the test with DU145 cells and with DU145 cells (listed as Peptide 2) were “significant effect” and “significantly different than the control”, respectively. Further, in the test with DU145 cells (versus control, p<0.05), the “decrease of cell viability” value was “over 2 fold”. For the same substance, the “Caspase 3/7 activity / induction of apoptosis” value in the test on Caspase 3/7 was “no significant change”.

As to “amino acids 49-60: peptide made against the previously described OFA/iLRP epitope (amino acids 49-60), Rohrer 2006 (INLKRTWEKLLL; UniProt P08865 49-60, looked up, fragment) [reference compound]”, in the test with DU145 cells, the “effect on cell viability” value is “unable to affect cell viability; also recorded: did not affect cell viability”. Besides, the “Caspase 3/7 activity / induction of apoptosis” value with Caspase 3/7 is “unable to affect cell viability or induce apoptosis”. Moreover, in the test with T-cells, the T-cell proliferation result is “able to proliferate T-cells”.
